The text below walks through data of ChEMBL document CHEMBL2380192, “Structure-activity relationship of potent antimicrobial peptide analogs of Ixosin-B amide” (Bioorg Med Chem Lett, 2013).

Data set [1] deals with Escherichia coli. Description: Antimicrobial activity against Escherichia coli ATCC 25922 after 18 to 20 hrs by macrobroth dilution method. Format: functional. (Dilution methods test growth across graded concentrations, often in twofold steps.)
Data set [2] relates to Staphylococcus aureus. The data set can be described thus: Antimicrobial activity against Staphylococcus aureus ATCC 25923 after 18 to 20 hrs by macrobroth dilution method. Format: functional.
Data set [3] concerns Pseudomonas aeruginosa. The data set can be described thus: Antimicrobial activity against Pseudomonas aeruginosa ATCC 27853 after 18 to 20 hrs by macrobroth dilution method. Format: functional.
Data set [4] in a line: Toxicity against human RBCs assessed as hemolysis at 100 uM after 1 hr by spectrophotometry. Format: cell-based, Erythrocyte. To be noted: red blood cells (RBCs), read-out: Activity.
In data set [5] the test system is Escherichia coli. Description: Induction of outer membrane permeabilization in Escherichia coli ML-35p at 40 to 100 uM measured every 2 mins by beta-lactamase/nitrocefin hydrolysis assay. Format: functional, organism-based.
For data set [6], the system named is Escherichia coli. The data set can be described thus: Induction of inner membrane permeabilization in Escherichia coli ML-35p at 10 to 100 uM measured every 2 mins by beta-galactosidase/ONPG hydrolysis assay. Format: functional, organism-based.
The test system of data set [7] is Escherichia coli. The data set can be described thus: Induction of inner membrane permeabilization in Escherichia coli ML-35p at 1 uM measured every 2 mins by beta-galactosidase/ONPG hydrolysis assay. Format: functional, organism-based.
For data set [8], the system named is Escherichia coli. Description: Induction of outer membrane permeabilization in Escherichia coli ML-35p at 1 uM measured every 2 mins by beta-lactamase/nitrocefin hydrolysis assay. Format: functional, organism-based.
In data set [9] the test system is Escherichia coli. Description: Induction of outer membrane permeabilization in Escherichia coli ML-35p at 10 to 20 uM measured every 2 mins by beta-lactamase/nitrocefin hydrolysis assay. Format: functional, organism-based.

In brackets after ≈: the same amount, converted by molar mass. Activity calls are given as the source filed them. No cut-off for these calls is given here.

Take H-WKSYVRRWRSR-OH: the MIC90 is 16 µM in data set [1], 32 µM in data set [2] and > 100 µM in [3]. Further, the hemolysis at 1 h, 100 µM in data set [4] is -1.2%.
Take GENTAMICIN: the MIC90 in data set [1] was found to be 1 µM; in data set [2], 0.1 µM; in data set [3], 0.35 µM.
For H-WKSYVRRWRS-OH, the MIC90 in [1] was 64 µM; in data set [2], > 100 µM; in data set [3], > 100 µM. Further, the hemolysis at 1 h, 100 µM in [4] is -0.4%.
For the compound H-LWGTRSGIQP-OH, the MIC90 in data set [1], in data set [2] and in data set [3] was > 100 µM throughout.
Regarding H-EQHSSGKSDV-OH, the MIC90 in [1], in data set [2] and in data set [3] was > 100 µM throughout.
Regarding “H-QLKVDLWGTRSGIQPEQHSSGKSDVRRWRSRY-NH2 [Ixosin-B-amide]”, the MIC90 in [1] is 80 µM; in [2] it was > 100 µM; in data set [3], > 100 µM.
In the case of H-WKSYVRRW-OH, the values for the MIC90 in data set [1], in data set [2] and in [3] were 64 µM, 100 µM and > 100 µM, respectively. Also, the hemolysis at 1 h, 100 µM in data set [4] came to 2%.
In the same order, the values of H-WKSYVRRWR-OH are 64 µM, 64 µM, > 100 µM and 1.1%.
As for H-GKSDVRRWRSRY-OH, the MIC90 in data set [1], in [2] and in [3] was > 100 µM each time.
In the case of H-WKSYVRRWRSRY-OH, the MIC90 in data set [1] was determined as 16 µM; in [2] it was 32 µM; in [3], 100 µM. Moreover, the hemolysis at 1 h, 100 µM in data set [4] was 1.5%.
On to `CC1(C)S[C@@H]2[C@H](NC(=O)Cc3ccccc3)C(=O)N2[C@H]1C(=O)O` [PENICILLIN G], for which the MIC90 was > 100 µM in data set [1], 0.125 µM (≈ 0.0418 µg/mL) in data set [2] and > 100 µM in data set [3].
In the case of H-WWSYVRRWRSR-OH, the result in data set [5], in [6] and in data set [9] was Active. In addition, the values for the MIC90 in data set [1], in data set [2] and in data set [3] were 16 µM, 8 µM and > 100 µM, respectively. Further, the outcome in data set [7] and in data set [8] was inactive. The hemolysis at 1 h, 100 µM in [4] is 3.4%.
Consider H-QLKVDLWGTR-OH, for which the MIC90 in [1], in [2] and in data set [3] was > 100 µM in each case.
In the case of H-WKSDVRRWRSRY-OH, the MIC90 in [1] is 64 µM; in [2], > 100 µM; in data set [3], > 100 µM. Moreover, the hemolysis at 1 h, 100 µM in [4] worked out at 0.3%.
Consider H-KKSYVRRWRS-OH, for which the MIC90 in [1], in data set [2] and in data set [3] was > 100 µM each time. Also, in data set [4], the hemolysis at 1 h, 100 µM was -0.6%.
For the compound H-SGIQPEQHSS-OH, the MIC90 in data set [1], in data set [2] and in data set [3] was > 100 µM each time.

One may read the MIC90 as an inhibitory concentration at the 90% level, which refers to growth in some studies and to a panel of isolates in others.
